Laboratory results taken from ChEMBL document CHEMBL4138231 (Eur J Med Chem, 2018).
Activity calls are given as the source filed them. The rule behind the calls is not given here.

How the values were obtained:
Huh-7 = experiment: Antiproliferative activity against human HuH7 cells after 72 hrs by CCK8 assay; type: functional
MCF7 = experiment: Antiproliferative activity against human MCF7 cells after 72 hrs by CCK8 assay; type: functional
NCI-H1975 = experiment: Antiproliferative activity against human NCI-H1975 cells after 72 hrs by CCK8 assay; type: functional
[1] = molecular target: Serine/threonine-protein kinase PLK2 (Homo sapiens, UniProt Q9NYY3); experiment: Inhibition human recombinant full length GST-tagged Plk2 expressed in baculovirus expression system after 1 hr by FRET-based Z'-Lyte assay
K562 = experiment: Antiproliferative activity against human K562 cells after 72 hrs by CCK8 assay; type: functional
HeLa = experiment: Antiproliferative activity against human HeLa cells after 72 hrs by CCK8 assay; type: functional
A549 = experiment: Antiproliferative activity against human A549 cells after 72 hrs by CCK8 assay; type: functional
[2] = molecular target: Serine/threonine-protein kinase PLK3 (Homo sapiens, UniProt Q9H4B4); experiment: Inhibition human recombinant GST-tagged Plk3 catalytic domain (58 to 340 residues) expressed in baculovirus expression system after 1 hr by FRET-based Z'-Lyte assay
Serine/threonine-protein kinase PLK3, sequence (Q9H4B4 whole entry, the tested form may be a part): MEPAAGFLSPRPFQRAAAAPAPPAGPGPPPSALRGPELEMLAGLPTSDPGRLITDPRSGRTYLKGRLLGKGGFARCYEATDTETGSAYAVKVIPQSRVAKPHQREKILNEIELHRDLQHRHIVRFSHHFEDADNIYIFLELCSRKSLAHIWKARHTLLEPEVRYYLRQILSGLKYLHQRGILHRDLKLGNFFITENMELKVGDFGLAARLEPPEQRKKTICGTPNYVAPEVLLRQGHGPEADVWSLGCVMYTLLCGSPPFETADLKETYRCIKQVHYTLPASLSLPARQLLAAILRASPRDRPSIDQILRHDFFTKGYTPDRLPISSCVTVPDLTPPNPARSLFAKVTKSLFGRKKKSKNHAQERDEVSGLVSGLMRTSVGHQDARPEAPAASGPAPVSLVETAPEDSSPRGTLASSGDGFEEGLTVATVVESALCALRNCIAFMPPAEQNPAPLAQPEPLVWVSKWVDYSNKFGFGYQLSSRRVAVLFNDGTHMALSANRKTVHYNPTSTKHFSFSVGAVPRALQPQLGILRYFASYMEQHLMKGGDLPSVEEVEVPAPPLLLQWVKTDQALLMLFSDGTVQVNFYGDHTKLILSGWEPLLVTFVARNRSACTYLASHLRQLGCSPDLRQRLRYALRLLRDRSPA

Serine/threonine-protein kinase PLK2, sequence (Q9NYY3 whole entry): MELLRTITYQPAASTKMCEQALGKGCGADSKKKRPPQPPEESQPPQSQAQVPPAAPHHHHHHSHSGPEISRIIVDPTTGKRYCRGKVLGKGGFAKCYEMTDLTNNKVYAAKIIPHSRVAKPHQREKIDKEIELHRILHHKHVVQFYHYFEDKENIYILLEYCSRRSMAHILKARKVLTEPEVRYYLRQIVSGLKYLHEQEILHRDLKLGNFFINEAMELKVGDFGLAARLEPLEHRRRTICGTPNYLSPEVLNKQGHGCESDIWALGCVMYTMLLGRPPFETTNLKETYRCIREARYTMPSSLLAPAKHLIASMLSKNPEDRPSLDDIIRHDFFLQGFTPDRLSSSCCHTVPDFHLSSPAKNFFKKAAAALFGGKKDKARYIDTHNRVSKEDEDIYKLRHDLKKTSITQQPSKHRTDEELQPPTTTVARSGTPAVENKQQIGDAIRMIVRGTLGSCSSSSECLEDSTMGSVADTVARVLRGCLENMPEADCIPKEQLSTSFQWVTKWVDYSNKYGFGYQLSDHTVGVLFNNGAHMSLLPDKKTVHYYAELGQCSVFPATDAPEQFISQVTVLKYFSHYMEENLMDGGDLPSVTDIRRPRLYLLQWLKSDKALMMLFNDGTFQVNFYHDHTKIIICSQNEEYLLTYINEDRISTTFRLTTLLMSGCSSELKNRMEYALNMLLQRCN

## CC[C@@H]1C(=O)N(C)c2cnc(Nc3ccc(S(=O)(=O)NCC(C)C)cc3)nc2N1C1CCCC1
Huh-7; Huh-7, 72 h
  GI50: 411 nM
MCF7; MCF7, 72 h
  GI50: 403 nM
NCI-H1975; NCI-H1975, 72 h
  GI50: 1040 nM
[1]
  IC50: 21.8 nM
K562; K562, 72 h
  GI50: 705 nM
HeLa
  GI50: 561 nM
A549; A549, 72 h
  GI50: 750 nM

## CCC1C(=O)N(C)c2cnc(Nc3ccc(S(=O)(=O)NC)cc3)nc2N1c1ccn(C)n1 (racemic)
Huh-7; Huh-7, 72 h
  GI50: 11900 nM
MCF7; MCF7, 72 h
  GI50: 3750 nM
NCI-H1975; NCI-H1975, 72 h
  GI50: 18800 nM
[1]
  IC50: 71.5 nM
K562; K562, 72 h
  GI50: 2890 nM
HeLa
  GI50: 2200 nM
A549; A549, 72 h
  GI50: 12600 nM

## CCC1C(=O)N(C)c2cnc(Nc3ccc(S(=O)(=O)NCCCO)cc3)nc2N1c1ccn(C)n1 (racemic)
Huh-7
  GI50: inactive
MCF7; MCF7, 72 h
  GI50: 21600 nM
NCI-H1975; NCI-H1975, 72 h
  GI50: 25800 nM
[1]
  IC50: 192 nM
K562; K562, 72 h
  GI50: 13400 nM
HeLa
  GI50: 23700 nM
A549; A549, 72 h
  GI50: 48800 nM

## CCC1C(=O)N(C)c2cnc(Nc3ccc(S(N)(=O)=O)cc3)nc2N1c1ccn(C)n1 (racemic)
Huh-7
  GI50: inactive
MCF7; MCF7, 72 h
  GI50: 36600 nM
NCI-H1975
  GI50: inactive
[1]
  IC50: 121 nM
K562
  GI50: inactive
HeLa
  GI50: 12600 nM
A549
  GI50: inactive

## CCC1C(=O)N(C)c2cnc(-n3ccc4cc(C(=O)NCC(C)C)ccc43)nc2N1c1ccn(C)n1 (racemic)
Huh-7; Huh-7, 72 h
  GI50: 5070 nM
MCF7; MCF7, 72 h
  GI50: 4810 nM
NCI-H1975; NCI-H1975, 72 h
  GI50: 10200 nM
[1]
  IC50: 159 nM
[2]
  IC50: > 10000 nM
K562; K562, 72 h
  GI50: 5600 nM
HeLa
  GI50: 4970 nM
A549; A549, 72 h
  GI50: 19200 nM

## CC[C@@H]1C(=O)N(C)c2cnc(-n3ccc4cc(C(N)=O)ccc43)nc2N1C1CCCC1
Huh-7; Huh-7, 72 h
  GI50: 3090 nM
MCF7; MCF7, 72 h
  GI50: 1830 nM
NCI-H1975; NCI-H1975, 72 h
  GI50: 3380 nM
[1]
  IC50: 28.5 nM
K562; K562, 72 h
  GI50: 1850 nM
HeLa
  GI50: 674 nM
A549; A549, 72 h
  GI50: 4350 nM

## CCCNS(=O)(=O)c1ccc(Nc2ncc3c(n2)N(C2CCCC2)[C@H](CC)C(=O)N3C)cc1
Huh-7; Huh-7, 72 h
  GI50: 278 nM
MCF7; MCF7, 72 h
  GI50: 344 nM
NCI-H1975; NCI-H1975, 72 h
  GI50: 2100 nM
[1]
  IC50: 17.8 nM
K562; K562, 72 h
  GI50: 548 nM
HeLa
  GI50: 459 nM
A549; A549, 72 h
  GI50: 563 nM

## CCCNS(=O)(=O)c1ccc(Nc2ncc3c(n2)N(c2ccn(C)n2)C(CC)C(=O)N3C)cc1 (racemic)
Huh-7; Huh-7, 72 h
  GI50: 8880 nM
MCF7; MCF7, 72 h
  GI50: 3000 nM
NCI-H1975; NCI-H1975, 72 h
  GI50: 21700 nM
[1]
  IC50: 190 nM
K562; K562, 72 h
  GI50: 2260 nM
HeLa
  GI50: 2670 nM
A549; A549, 72 h
  GI50: 15000 nM

## CC[C@@H]1C(=O)N(C)c2cnc(Nc3ccc(S(=O)(=O)NC)cc3)nc2N1C1CCCC1
Huh-7; Huh-7, 72 h
  GI50: 99 nM
MCF7; MCF7, 72 h
  GI50: 151 nM
NCI-H1975; NCI-H1975, 72 h
  GI50: 1410 nM
[1]
  IC50: 3.4 nM
K562; K562, 72 h
  GI50: 222 nM
HeLa
  GI50: 148 nM
A549; A549, 72 h
  GI50: 183 nM

## CCCCNC(=O)c1ccc2c(ccn2-c2ncc3c(n2)N(C2CCCC2)[C@H](CC)C(=O)N3C)c1
Huh-7; Huh-7, 72 h
  GI50: 683 nM
MCF7; MCF7, 72 h
  GI50: 634 nM
NCI-H1975; NCI-H1975, 72 h
  GI50: 990 nM
[1]
  IC50: 16.5 nM
K562; K562, 72 h
  GI50: 673 nM
HeLa
  GI50: 346 nM
A549; A549, 72 h
  GI50: 1160 nM

## CC[C@@H]1C(=O)N(C)c2cnc(Nc3ccc(S(=O)(=O)NCCO)cc3)nc2N1C1CCCC1
Huh-7; Huh-7, 72 h
  GI50: 278 nM
MCF7; MCF7, 72 h
  GI50: 344 nM
NCI-H1975; NCI-H1975, 72 h
  GI50: 2100 nM
[1]
  IC50: 7.86 nM
K562; K562, 72 h
  GI50: 546 nM
HeLa
  GI50: 459 nM
A549; A549, 72 h
  GI50: 563 nM

## CCC1C(=O)N(C)c2cnc(-n3ccc4cc(C(N)=O)ccc43)nc2N1c1ccn(C)n1 (racemic)
Huh-7
  GI50: inactive
MCF7
  GI50: inactive
NCI-H1975
  GI50: inactive
[1]
  IC50: 384 nM
[2]
  IC50: > 10000 nM
K562; K562, 72 h
  GI50: 31300 nM
HeLa
  GI50: 27400 nM
A549; A549, 72 h
  GI50: 39500 nM

## CC[C@@H]1C(=O)N(C)c2cnc(-n3ccc4cc(C(=O)NC5CCCC5)ccc43)nc2N1C1CCCC1
Huh-7; Huh-7, 72 h
  GI50: 259 nM
MCF7; MCF7, 72 h
  GI50: 795 nM
NCI-H1975; NCI-H1975, 72 h
  GI50: 856 nM
[1]
  IC50: 7.06 nM
[2]
  IC50: > 20000 nM
K562; K562, 72 h
  GI50: 414 nM
HeLa
  GI50: 247 nM
A549; A549, 72 h
  GI50: 670 nM

## CC[C@@H]1C(=O)N(C)c2cnc(Nc3ccc(S(N)(=O)=O)cc3)nc2N1C1CCCC1
Huh-7; Huh-7, 72 h
  GI50: 1300 nM
MCF7; MCF7, 72 h
  GI50: 394 nM
NCI-H1975; NCI-H1975, 72 h
  GI50: 5290 nM
[1]
  IC50: 10.2 nM
K562; K562, 72 h
  GI50: 470 nM
HeLa
  GI50: 317 nM
A549; A549, 72 h
  GI50: 3390 nM

## CCCCNS(=O)(=O)c1ccc(Nc2ncc3c(n2)N(c2ccn(C)n2)C(CC)C(=O)N3C)cc1 (racemic)
Huh-7; Huh-7, 72 h
  GI50: 3750 nM
MCF7; MCF7, 72 h
  GI50: 5780 nM
NCI-H1975; NCI-H1975, 72 h
  GI50: 4120 nM
[1]
  IC50: 191 nM
K562; K562, 72 h
  GI50: 4240 nM
HeLa
  GI50: 4320 nM
A549; A549, 72 h
  GI50: 10600 nM

## CCC1C(=O)N(C)c2cnc(Nc3ccc(S(=O)(=O)NCCO)cc3)nc2N1c1ccn(C)n1 (racemic)
Huh-7
  GI50: inactive
MCF7
  GI50: inactive
NCI-H1975
  GI50: inactive
[1]
  IC50: 478 nM
K562
  GI50: inactive
HeLa
  GI50: inactive
A549
  GI50: inactive

## CC[C@@H]1C(=O)N(C)c2cnc(-n3ccc4ccccc43)nc2N1C1CCCC1
Huh-7; Huh-7, 72 h
  GI50: 4690 nM
MCF7; MCF7, 72 h
  GI50: 17200 nM
NCI-H1975; NCI-H1975, 72 h
  GI50: 28300 nM
[2]
  IC50: > 20000 nM
K562; K562, 72 h
  GI50: 6910 nM
HeLa
  GI50: 33900 nM
A549; A549, 72 h
  GI50: 57500 nM
